# Experimental data reported in patent publication US20250345439A1, “CHONDROITIN SULFATE BIOGENIC POLYAMINE COMPLEX, PREPARATION METHOD THEREOF AND USE THEREOF” (priority 2022, published 2025).
# Test system: rat rheumatoid arthritis model
# [1] = venous blood, day 14 after administration
structure (smiles),measurement,setting,value
"CN(Cc1cnc2nc(N)nc(N)c2n1)c1ccc(C(=O)N[C@@H](CCC(=O)O)C(=O)O)cc1 [MTX, methotrexate]",degrees of swelling in the toes of rats,"CSX of Example 2 200 mg/kg gavage daily, MTX 0.2 mg/kg gavage every other day",showed the desired effect of inhibiting toe swelling
same,CT of ankle joint parts of rats,"CSX of Example 2, MTX positive control",the degree of joint injury was more serious than that in the rats of the drug group (CSX)
same,bone surface (BS) of the ankle joint,CT,decreased significantly
same,absolute leukocyte count vs model group,[1],no statistical difference
same,absolute lymphocyte count vs model group,[1],significantly decreased
same,absolute neutrophil count vs model group,[1],significantly decreased
